Laboratory results reported in article PMC9705858, “Anti-Endotoxin 9-Meric Peptide with Therapeutic Potential for the Treatment of Endotoxemia” (Journal of Microbiology and Biotechnology, 2020).
Values after ≈ are worked out from the molar mass of the structure shown. Read-outs that look alike come from different tables or passages of the source. Non-standard residues stand in square brackets, D forms with d. Residues, ends and D or L forms follow the SMILES beside them.

Assays:
[1] = system: sheep red blood cells; test: Hemolysis of sheep red blood cells; assay type: cell-based
Experimental: (§1) The capacity of peptides in the lysis of erythrocytes was analyzed using sheep red blood cells (RBCs) as described previously. Cytotoxicity was further assessed in mouse macrophage RAW264.7 cells, which were cultured in Dulbecco’s modified Eagle medium (Thermo Fischer Scientific Inc., USA) enriched with fetal bovine serum (10%) and antibiotics (penicillin/streptomycin, 100 IU/ 100 mg/L) at 37°C in a CO2 incubator. The cytotoxic effect of Pro9-3 series peptides against RAW264.7 cells was then determined using WST-8 Cell Proliferation Assay Kit (Biomax Co. Ltd., Korea). The analysis was carried out according to our previously reported method.

[2] = system: MDR Escherichia coli CCARM 1229; assay type: cell-based; settings: MDREC 1229; 99% growth inhibition; 2 × 10^5 CFU/ml, 37°C, 16 h, A600
Source text: (§2) The gram-negative bacterial strains Escherichia coli (KCTC 1682) and Acinetobacter baumannii (KCCM 40203) were purchased from the Korean Collection for Type Cultures (Korea) and the Korean Culture Center of Microorganisms (Korea), respectively. The MDR gram-negative strains Escherichia coli CCARM 1229, Escherichia coli CCARM 1238, Acinetobacter baumannii CCARM 12010, and Acinetobacter baumannii CCARM 12220 were obtained from the Culture Collection of Antibiotic-Resistant Microbes at Seoul Women’s University (South Korea).
(§3) The antibacterial properties of all peptides were determined by measuring the Minimum Inhibitory Concentration (MIC) as described previously. […] Two-fold serial dilutions of respective peptides were inoculated in 96-well plates in Mueller-Hinton medium, followed by the addition of bacterial suspensions (2 × 10^5 CFU/ml) at the log growth phase. The plates were incubated at 37°C for 16 h, and absorbance was read at 600 nm using a SpectraMAX microplate reader (Molecular Devices, USA).

[3] = system: MDR Acinetobacter baumannii CCARM 12220; assay type: cell-based; settings: MDRAB 12220; 99% growth inhibition; 2 × 10^5 CFU/ml, 37°C, 16 h, A600
Source text: as §2, §3

[4] = system: Acinetobacter baumannii (KCCM 40203); assay type: cell-based
Source text: as §2, §3

[5] = system: MDR Acinetobacter baumannii CCARM 12010; assay type: cell-based; settings: MDRAB 12010; 99% growth inhibition; 2 × 10^5 CFU/ml, 37°C, 16 h, A600
Source text: as §2, §3

[6] = system: MDR Escherichia coli CCARM 1238; assay type: cell-based; settings: MDREC 1238; 99% growth inhibition; 2 × 10^5 CFU/ml, 37°C, 16 h, A600
Source text: as §2, §3

[7] = system: gram-negative bacterial strains and MDR bacterial strains; test: Geometric mean of MICs over all tested bacterial strains and relative selective index; assay type: cell-based, Escherichia coli, Acinetobacter baumannii; settings: larger values indicate greater cell selectivity
Experimental: The geometric means (GM) of MICs were assessed to evaluate the antibacterial activities of Pro9-3 series against tested bacterial strains.

[8] = system: RAW264.7 cells; test: Cytotoxicity, WST-8 cell proliferation assay; assay type: cell-based, mouse; settings: 24 h, mean of three experiments
Experimental: as §1
Fig. 1 Cytotoxicities of peptides. (A) Dose-dependent hemolytic activities in sheep red blood cell (sRBC) caused by peptides. (B) Dose-response cytotoxicities of the Pro9-3 and its analogs against RAW264.7 cells for 24 h. Melittin was used as a positive control. The values are expressed as the mean ± SEM of three independent experiments: *p < 0.05; **p < 0.01; ***p < 0.001; ns, not significant.

[9] = system: Escherichia coli (KCTC 1682); assay type: cell-based
Source text: as §2, §3

[10] = Limulus amebocyte lysate (LAL) assay, LPS neutralization; assay type: biochemical, Escherichia coli; settings: 50 μM peptide, 2 ng/ml LPS, 15 min at 37°C
Experimental: To check the endotoxin clearance properties of peptides, LAL assay was performed according to the protocol provided in the kit (Pierce LAL Chromogenic Endotoxin Quantitation Kit, Thermo Fisher Scientific). Escalating concentrations of peptides (up to 50 μM) were added with 2 ng/ml LPS (E. coli O111:B4, Sigma-Aldrich, USA) for 15 min at 37°C. To this content, an equal volume of LAL reagent was added and incubated for 15 min and then chromogenic substrate was added. The contents were incubated for another 10 min and 25% acetic acid was used to stop the reaction. The end color (yellow) formed due to […] of substrate was read at 405 nm. LL-37 was used as a control.

[11] = A. baumannii KCCM 40203, 99% growth inhibition, 2 × 10^5 CFU/ml, 37°C, 16 h, A600
[12] = E. coli KCTC 1682, 99% growth inhibition, 2 × 10^5 CFU/ml, 37°C, 16 h, A600

Compound | Hemolytic activity in sRBC (in words) ([1]; escalated dose of peptides, Fig. 1A) | Minimal inhibitory concentration (MIC) [2] [µM] | Minimal inhibitory concentration (MIC) [3] [µM] | Minimal inhibitory concentration (MIC) [4, 11] [µM] | Minimal inhibitory concentration (MIC) [5] [µM] | Minimal inhibitory concentration (MIC) [6] [µM] | Relative selective index (HC10/GM of the MIC) [7] | Survival of RAW264.7 macrophage cells ([8]; 100 μM peptide) [%] | Minimal inhibitory concentration (MIC) [9, 12] [µM] | Survival of RAW264.7 macrophage cells ([8]; 50 μM peptide) [%] | HC10 (peptide concentration which induces 10% hemolysis) [1] [µM] | Minimal inhibitory concentration (MIC) ([4]; KCCM 40203, 16 h) [µM] | Minimal inhibitory concentration (MIC) ([9]; KCTC 1682, 16 h) [µM] | LPS neutralization (LAL assay) [10] [%]
CC[C@H](C)[C@H](NC(=O)CN)C(=O)NCC(=O)N[C@@H](C)C(=O)N[C@H](C(=O)N[C@@H](CC(C)C)C(=O)N[C@@H](CCCCN)C(=O)N[C@H](C(=O)N[C@@H](CC(C)C)C(=O)N[C@H](C(=O)N[C@H](C(=O)NCC(=O)N[C@@H](CC(C)C)C(=O)N1CCC[C@H]1C(=O)N[C@@H](C)C(=O)N[C@@H](CC(C)C)C(=O)N[C@H](C(=O)N[C@@H](CO)C(=O)N[C@@H](Cc1c[nH]c2ccccc12)C(=O)N[C@H](C(=O)N[C@@H](CCCCN)C(=O)N[C@@H](CCCNC(=N)N)C(=O)N[C@@H](CCCCN)C(=O)N[C@@H](CCCNC(=N)N)C(=O)N[C@@H](CCC(N)=O)C(=O)N[C@@H](CCC(N)=O)C(N)=O)[C@@H](C)CC)[C@@H](C)CC)[C@@H](C)O)[C@@H](C)O)C(C)C)C(C)C [Melittin, reference compound] | severe cytotoxicity even at low concentration | 16 (≈ 45.5 µg/mL) | 8 (≈ 22.8 µg/mL) | 8 (≈ 22.8 µg/mL) | 8 (≈ 22.8 µg/mL) | 32 (≈ 91.1 µg/mL) | 0.06 |  |  |  |  |  |  | 
CC[C@H](C)[C@H](NC(=O)[C@H](C)NC(=O)[C@H](CC(C)C)NC(=O)[C@H](Cc1c[nH]c2ccccc12)NC(=O)[C@H](CC(C)C)NC(=O)[C@@H](N)CCCCN)C(=O)N[C@@H](Cc1c[nH]c2ccccc12)C(=O)N[C@@H](CCCCN)C(=O)N[C@@H](CCCCN)C(N)=O [Pro9-3-K] (H-KLWLAIWKK-NH2) |  | 64 (≈ 75.8 µg/mL) | 64 (≈ 75.8 µg/mL) | 64 (≈ 75.8 µg/mL) | 64 (≈ 75.8 µg/mL) | 64 (≈ 75.8 µg/mL) |  | 100 | 64 (≈ 75.8 µg/mL) |  |  |  |  | 
CC[C@@H](C)[C@@H](NC(=O)[C@@H](C)NC(=O)[C@@H](CC(C)C)NC(=O)[C@@H](Cc1c[nH]c2ccccc12)NC(=O)[C@@H](CC(C)C)NC(=O)[C@H](N)CCCCN)C(=O)N[C@H](Cc1c[nH]c2ccccc12)C(=O)N[C@H](CCCCN)C(=O)N[C@H](CCCCN)C(N)=O [Pro9-3D-K] (H-[dK][dL][dW][dL][dA][dI][dW][dK][dK]-NH2) |  | 32 (≈ 37.9 µg/mL) | 32 (≈ 37.9 µg/mL) | 32 (≈ 37.9 µg/mL) | 32 (≈ 37.9 µg/mL) | 16 (≈ 19 µg/mL) |  |  | 16 (≈ 19 µg/mL) | 71 |  |  |  | 
CC[C@@H](C)[C@@H](NC(=O)[C@@H](C)NC(=O)[C@@H](CC(C)C)NC(=O)[C@@H](Cc1c[nH]c2ccccc12)NC(=O)[C@@H](CC(C)C)NC(=O)[C@H](N)CCCNC(=N)N)C(=O)N[C@H](Cc1c[nH]c2ccccc12)C(=O)N[C@H](CCCNC(=N)N)C(=O)N[C@H](CCCNC(=N)N)C(N)=O [Pro9-3D] (H-[dR][dL][dW][dL][dA][dI][dW][dR][dR]-NH2) |  | 8 (≈ 10.1 µg/mL) | 8 (≈ 10.1 µg/mL) |  | 8 (≈ 10.1 µg/mL) | 4 (≈ 5.07 µg/mL) |  |  | 8 (≈ 10.1 µg/mL) | 40 | 200 | 4 (≈ 5.07 µg/mL) |  | 
CC[C@H](C)[C@H](NC(=O)[C@H](C)NC(=O)[C@H](CC(C)C)NC(=O)[C@H](Cc1c[nH]c2ccccc12)NC(=O)[C@H](CC(C)C)NC(=O)[C@@H](N)CCCNC(=N)N)C(=O)N[C@@H](Cc1c[nH]c2ccccc12)C(=O)N[C@@H](CCCNC(=N)N)C(=O)N[C@@H](CCCNC(=N)N)C(N)=O [Pro9-3] (H-RLWLAIWRR-NH2) |  | 16 (≈ 20.3 µg/mL) | 16 (≈ 20.3 µg/mL) |  | 16 (≈ 20.3 µg/mL) | 32 (≈ 40.6 µg/mL) |  | 100 |  |  | 200 | 16 (≈ 20.3 µg/mL) | 16 (≈ 20.3 µg/mL) | 
LL-37 |  |  |  |  |  |  |  |  |  |  |  |  |  | 91
